Tests used:
[1] = test system: 4T1-luc xenograft (flank, s.c.); assay: Tumor regression in xenograft animal model; type: in vivo, mouse; conditions: 4 mg/kg tail vein (IV) once every 3 days, 6 times; compared to Vehicle; FIG. 8A, 8B
Text: After 4-week-old athymic nude mice (female) were purchased, only healthy mice were selected while the mice were adapted to the environment of the animal breeding room for 7 days. For identification of each mouse, the ears were marked using an ear punch. In addition, the breeding box was identified by attaching a mouse identification card describing the test number, test substance name, test item, receipt date, test date, test content, and the person in charge of the test. The environment of the animal breeding room was maintained at a temperature of 22±3° C., a relative humidity of 50±20%, 10 to 15 ventilations/hour, a 12-hour light (8:30 to 20:30)/dark cycle, and an illuminance of 150 to 300 lux. In addition, the animals were fed feed and drinking water during the breeding period, and quarantined during the acclimatization and testing periods. […]
During a period ranging from the day the mouse breast cancer cell line 4T1-luc was injected to the end of the experiment (dissection date), the tumor volume was measured every day. […] In order to confirm the tumor regression effect, the volume of the tumor was measured before administration of the compound of Production Example 6, and at day 28 after the first administration of the compound of Production Example 6, the animals were euthanized, and the primary tumors were excised and their volumes were compared.

MDA-MB-231 cell line = assay: Flow cytometry assay (Annexin V / PI); type: cell-based, human; conditions: MDA-MB-231, 0 to 30 μM, 24 hours; FIG. 6
Procedure: The breast cancer cell line of Experimental Method 1 was treated with the compound of Production Example 6 at a concentration of 0 to 30 μM and cultured for 24 hours. Thereafter, the cultured cells were detached by trypsin, and then double-stained with Annexin V; recognizing apoptosis) and PI (propidium iodide; recognizing cell necrosis), and then the pattern and level of apoptosis were measured using flow cytometry.

[2] = test system: cleaved-PARP, Bcl-2 and Cyclin D1 proteins; assay: Apoptosis marker Western blot in 4T1 cell line; type: cell-based, mouse; conditions: FIG. 5
p-AMPK (Thr172) [3] = assay: AMPK activation by p-AMPK (Thr172) Western blot in brain cancer cell lines; type: cell-based, human; conditions: 10 μM, 12 hours, compared to untreated group
Procedure: (§1) [3-2] The three breast cancer cell lines (4T1, BT549, and MDA-MB-231) of Experimental Method 1 were treated with each of the compound of Production Example 6 and 13 compounds, including the compounds of Production Examples 1 to 5 and 8 to 15 having a similar structure (YE-01, 02, 03, 04, 05, 08, 09, 10, 11, 12, 13, 14 and 15), at a concentration of 10 μM, and then cultured for 24 hours. In addition, each of two types of gastric cancer cell lines, brain cancer cell lines and pancreatic cancer cell lines was treated with the compound of Production Example 6 or the compound of Production Example 8 having a similar structure at a concentration of 10 μM and then cultured for 12 hours. Thereafter, the cells were harvested and lysed in RIPA buffer, and the protein was electrophoresed by SDS-PAGE, and then the expression level of the protein was analyzed using antibodies specific for AMPK and phospho-AMPK (Thr172). GAPDH or β-actin was used as a loading control for protein quantification.

p-AMPK (Thr172) [4] = assay: AMPK activation by p-AMPK (Thr172) Western blot in pancreatic cancer cell lines; type: cell-based, human; conditions: 10 μM, 12 hours, compared to untreated group
Procedure: as §1

p-AMPK (Thr172) [5] = assay: AMPK activation by p-AMPK (Thr172) Western blot in 4T1 cells; type: cell-based, mouse; conditions: 24 hours
Procedure: (§2) [3-1] The breast cancer cell line of Experimental Method 1 above was treated with the compound of Production Example 6 at a concentration of 0 to 30 μM, and then cultured for 24 hours. Thereafter, the cells were harvested and lysed in RIPA buffer, and the protein was electrophoresed by SDS-PAGE, and then the expression level of the protein was analyzed using antibodies specific for AMPK and phospho-AMPK (Thr172). GAPDH or β-actin was used as a loading control for protein quantification.
as §1

p-AMPK (Thr172) [6] = assay: AMPK activation by p-AMPK (Thr172) Western blot in BT549 cells; type: cell-based, human; conditions: BT549, 10 μM, 24 hours; FIG. 3B
Procedure: as §2
as §1, with “In addition, each of two types of gastric cancer cell lines, brain cancer cell lines and pancreatic cancer cell lines was treated with the compound of Production Example 6 or the compound of Production Example 8 having a similar structure at a concentration of 10 μM and then cultured for 12 hours.” left out

[7] = test system: EMT protein markers α-SMA, Vimentin, ZEB-1 and Slug; assay: EMT protein marker Western blot, TGF-β1-treated BT549 cells; type: cell-based, human; conditions: BT549, with TGF-β1; FIG. 7A
Procedure: (§3) The culture medium of the breast cancer cell line of Experimental Method 1 was replaced with a serum-free medium. Then, the cells were treated with 2 ng/mL of TGF-β1 and the compound of Preparation Example 6 and cultured for 20 to 24 hours. Thereafter, as described in Experimental Method 3, the expression level of the protein was measured using an antibody specific for the EMT-related protein.

AMPK = assay: Cellular thermal shift assay (CTSA) of AMPK protein, Western blot; type: binding, human; conditions: cells treated with compound; AMPK protein alone Tm 50° C.; FIG. 1
Procedure: In order to examine whether or not the compound of Production Example 6 and 13 compounds, including the compounds of Production Examples 1 to 5 and 8 to 15 having a similar structure (YE-01, 02, 03, 04, 05, 08, 09, 10, 11, 12, 13, 14 and 15), bind to the AMP binding site of AMPK, cellular thermal shift assay (CTSA) was performed. Specifically, the cultured human breast cancer-derived cell line (BT549 or MDA-MB-231 cell line) was detached from the culture dish using trypsin. The detached cell line was diluted in PBS, and the same amount of the cells were dispensed in each tube for PCR and heated for 3 minutes at a temperature of room temperature to 65° C. After completion of the heating, protein was isolated from the cell line using liquid nitrogen, and Western blot analysis was performed to confirm the temperature at which AMPK would be denatured by heat.

secreted MMP2 and MMP9 = assay: Secreted MMP2 and MMP9 levels, TGF-β1-treated BT549 cells; type: cell-based, human; conditions: BT549, with TGF-β1; FIG. 7B
Procedure: as §3

COc1ccc(OC)c(/C=C/C(=O)c2ccc(NS(=O)(=O)c3ccc(Cl)cc3)cc2)c1 [Production Example 6, (E)-4-chloro-N-(4-(3-(2,5-dimethoxyphenyl)acryloyl)phenyl)benzenesulfonamide]
volume of the tumor [1]: decreased
cells stained with annexin V or PI (MDA-MB-231 cell line): increased in a concentration-dependent manner
level of Bcl-2 protein [2]: decreased
level of Cyclin D1 protein [2]: decreased
level of apoptosis marker cleaved-PARP protein [2]: increased
expression of p-AMPK (p-AMPK (Thr172) [3]): increased
expression of p-AMPK (p-AMPK (Thr172) [4]): increased
phospho-AMPK protein (p-AMPK (Thr172) [5]; 4T1, 0 to 30 μM, FIG. 5): increased in a concentration-dependent manner
p-AMPK level (p-AMPK (Thr172) [5]; 4T1, 10 μM, FIG. 3B): effectively increased
p-AMPK level (p-AMPK (Thr172) [6]): effectively increased
Slug protein [7]: decreased
Vimentin protein [7]: decreased
ZEB-1 protein [7]: decreased
α-SMA protein [7]: decreased
Tm value of AMPK protein (AMPK): 55 °C
level of secreted MMP2 (secreted MMP2 and MMP9): significantly decreased
level of secreted MMP9 (secreted MMP2 and MMP9): significantly decreased

From patent US12447137B2, “Composition for prevention, amelioration, or treatment of cancer” (EWHA UNIVERSITY—INDUSTRY COLLABORATION FOUNDATION, priority 2019, dated 2025)
